The subject of this assay is L1210 leukemia ip in BDF1 mice, survival T/C. As to the kind of experiment: NCI In Vivo Anticancer Drug Screen. Data for tumor model L1210 Leukemia (intraperitoneal) in B6D2F1 (BDF1) mice. Particulars: endpoint: mean survival time, higher = longer survival. The gist of the method: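 Tumor cells were implanted, animals were treated, and survival was followed. The result divides the treated measurement by the vehicle-control measurement.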

Where [1] appears, read: dose: 25.0 mg/kg/injection, schedule: Q01DX009 (ip), vehicle: saline.
Where [2] appears, read: dose: 50.0 mg/kg/injection, schedule: Q01DX009 (ip), vehicle: saline.
[3] abbreviates: dose: 100.0 mg/kg/injection, schedule: Q01DX009 (ip), vehicle: saline.
[4] abbreviates: dose: 100.0 mg/kg/injection, schedule: Q04DX003 (ip), vehicle: saline.
Setting [5] is: dose: 200.0 mg/kg/injection, schedule: Q01DX009 (ip), vehicle: saline.
Setting [6] is: dose: 200.0 mg/kg/injection, schedule: Q04DX003 (ip), vehicle: saline.
Setting [7] is: dose: 400.0 mg/kg/injection, schedule: Q04DX003 (ip), vehicle: saline.
Setting [8] is: dose: 100.0 mg/kg/injection, schedule: Q01DX009 (ip), vehicle: Klucel (hydroxypropylcellulose) (HPC).
Where [9] appears, read: dose: 200.0 mg/kg/injection, schedule: Q01DX009 (ip), vehicle: Klucel (hydroxypropylcellulose) (HPC).
The mark [10] stands for this setting: dose: 400.0 mg/kg/injection, schedule: Q01DX009 (ip), vehicle: Klucel (hydroxypropylcellulose) (HPC).
[11] abbreviates: dose: 100.0 mg/kg/injection, schedule: Q04DX003 (ip), vehicle: saline with Tween-80.
Setting [12] is: dose: 200.0 mg/kg/injection, schedule: Q04DX003 (ip), vehicle: saline with Tween-80.

The structures appear in SMILES notation. Where “and” joins values, the source holds several entries; their conditions need not be identical. Equal entries are not always repeated. Toxic doses and inconclusive results are not listed.

For `N#CCN1CCOCC1`, the T/C is, setting by setting: under setting [1], 122 % of control; under setting [2], 101 % of control; under setting [3], 97 % of control and 98 % of control; under setting [4], 103 % of control; under setting [5], 110 % of control; under setting [6], 97 % of control.
In the case of `CN(C)C1=NC(=O)C(c2ccccc2)O1` (stereo not given), the T/C is 104 % of control under setting [1]; 111 % of control under setting [2]; 101 % of control (dose: 50.0 mg/kg/injection, schedule: Q04DX003 (ip), vehicle: saline); 111 % of control under setting [3]; 101 % of control under setting [5]; 100 % of control under setting [6]. In addition, the T/C under setting [7] was 100 % of control.
`CCOC(=O)C1=C2c3ccc4cc(OC)ccc4c3CCC2(C)C(=O)C1` (stereo not given): the T/C runs as follows: (dose: 100.0 mg/kg/injection, schedule: Q04DX003 (sc), vehicle: steriod suspending solution) 102 % of control; (dose: 200.0 mg/kg/injection, schedule: Q04DX003 (sc), vehicle: steriod suspending solution) 109 % of control; (dose: 400.0 mg/kg/injection, schedule: Q04DX003 (sc), vehicle: steriod suspending solution) 109 % of control.
For the compound `Cc1ccc(NC(=O)Oc2cc(C)c(Cl)cc2C(C)C)cc1`, the T/C is 98 % of control under setting [8], 96 % of control under setting [9] and 100 % of control under setting [10].
In the case of `Clc1nc(Cl)nc(-c2cccn2-c2ccccc2)n1`, the T/C was 92 % of control (dose: 6.25 mg/kg/injection, schedule: Q01DX009 (ip), vehicle: saline with Tween-80); 101 % of control (dose: 100.0 mg/kg/injection, schedule: Q04DX003 (ip), vehicle: acetone); 101 % of control under setting [4]; 86 % of control (dose: 200.0 mg/kg/injection, schedule: Q04DX003 (ip), vehicle: acetone); 93 % of control under setting [7].
In the case of `O=C(NCc1ccccc1)Nc1ccccc1F`, the T/C is 110 % of control under setting [8], 110 % of control under setting [9] and 104 % of control under setting [10].
As to `C/C=C1/C[C@@H](C)[C@@](C)(O)C(=O)OCC2=CCN3CC[C@@H](OC1=O)[C@@H]23`, the T/C is, setting by setting: (dose: 10.0 mg/kg/injection, schedule: Q01DX015 (ip), vehicle: carboxymethylcellulose (CMC)) 93 % of control; (dose: 20.0 mg/kg/injection, schedule: Q01DX015 (ip), vehicle: carboxymethylcellulose (CMC)) 96 % of control; (dose: 30.0 mg/kg/injection, schedule: Q01DX015 (ip), vehicle: carboxymethylcellulose (CMC)) 98 % of control; (dose: 100.0 mg/kg/injection, schedule: Q01DX001 (ip), vehicle: carboxymethylcellulose (CMC)) 105 % of control.
For the compound `Cc1cc(O)ccc1C1=NCC(C)S1` (stereo not given), the T/C is 87 % of control (dose: 100.0 mg/kg/injection, schedule: Q01DX005 (ip), vehicle: Klucel (hydroxypropylcellulose) (HPC)); 98 % of control under setting [8]; 100 % of control (dose: 100.0 mg/kg/injection, schedule: Q04DX002 (ip), vehicle: Klucel (hydroxypropylcellulose) (HPC)); 101 % of control (dose: 200.0 mg/kg/injection, schedule: Q01DX005 (ip), vehicle: Klucel (hydroxypropylcellulose) (HPC)); 109 % of control under setting [9]; 100 % of control (dose: 200.0 mg/kg/injection, schedule: Q04DX002 (ip), vehicle: Klucel (hydroxypropylcellulose) (HPC)). For the same compound, the T/C by setting is: (dose: 400.0 mg/kg/injection, schedule: Q01DX005 (ip), vehicle: Klucel (hydroxypropylcellulose) (HPC)) 90 % of control; under setting [10], 95 % of control; (dose: 400.0 mg/kg/injection, schedule: Q04DX002 (ip), vehicle: Klucel (hydroxypropylcellulose) (HPC)) 107 % of control.
For the compound `CC(/C=N/N=C(\N)N(C)C)=N\N=C(/N)N(C)C`, the T/C by setting is: (dose: 95.0 mg/kg/injection, schedule: Q01DX Z (oral), vehicle: carboxymethylcellulose (CMC)) 104 % of control; (dose: 190.0 mg/kg/injection, schedule: Q01DX Z (oral), vehicle: carboxymethylcellulose (CMC)) 110 % of control; (dose: 240.0 mg/kg/injection, schedule: Q01DX Z (ip), vehicle: carboxymethylcellulose (CMC)) 96 % of control; (dose: 380.0 mg/kg/injection, schedule: Q01DX Z (oral), vehicle: carboxymethylcellulose (CMC)) 106 % of control; (dose: 760.0 mg/kg/injection, schedule: Q01DX Z (oral), vehicle: carboxymethylcellulose (CMC)) 112 % of control.
Regarding `ClCCCN1CCCCC1CCl` (stereo not given), the T/C by setting is: (dose: 3.12 mg/kg/injection, schedule: Q01DX009 (ip), vehicle: saline) 114 % of control; (dose: 6.25 mg/kg/injection, schedule: Q01DX009 (ip), vehicle: saline) 114 % of control; (dose: 6.25 mg/kg/injection, schedule: Q04DX003 (ip), vehicle: saline) 111 % of control; (dose: 12.5 mg/kg/injection, schedule: Q04DX003 (ip), vehicle: saline) 111 % of control; (dose: 25.0 mg/kg/injection, schedule: Q04DX003 (ip), vehicle: saline) 150 % of control.
In the case of `N#CCCn1c(=S)sc2ccccc21`, the T/C (dose: 50.0 mg/kg/injection, schedule: Q04DX003 (ip), vehicle: saline with Tween-80) was 103 % of control; the T/C under setting [11] is 100 % of control; the T/C under setting [12] was 106 % of control.
On to `CCCCN(CCCC)CC(O)c1ccccc1` (stereo not given), for which the T/C was 112 % of control (dose: 25.0 mg/kg/injection, schedule: Q01DX005 (ip), vehicle: saline); 95 % of control under setting [1]; 102 % of control (dose: 25.0 mg/kg/injection, schedule: Q04DX002 (ip), vehicle: saline with Tween-80); 108 % of control (dose: 50.0 mg/kg/injection, schedule: Q01DX005 (ip), vehicle: saline); 107 % of control under setting [2]; 106 % of control (dose: 50.0 mg/kg/injection, schedule: Q04DX002 (ip), vehicle: saline with Tween-80). Further, the T/C (dose: 100.0 mg/kg/injection, schedule: Q01DX005 (ip), vehicle: saline) is 101 % of control and the T/C (dose: 100.0 mg/kg/injection, schedule: Q04DX002 (ip), vehicle: saline with Tween-80) is 93 % of control.
In the case of `CN(Cc1cnc2nc(N)nc(N)c2n1)c1ccc(C(=O)NC(CCC(=O)O)C(=O)O)c2ccccc12` (stereo not given), the T/C is, setting by setting: (dose: 2.0 mg/kg/injection, schedule: Q01DX009 (ip), vehicle: saline) 159 % of control; (dose: 2.0 mg/kg/injection, schedule: Q04DX003 (ip), vehicle: saline) 120 % of control; (dose: 4.0 mg/kg/injection, schedule: Q01DX009 (ip), vehicle: saline) 152 % of control and 172 % of control; (dose: 4.0 mg/kg/injection, schedule: Q04DX003 (ip), vehicle: saline) 122 % of control; (dose: 8.0 mg/kg/injection, schedule: Q01DX009 (ip), vehicle: saline) 156 % of control and 160 % of control; (dose: 8.0 mg/kg/injection, schedule: Q04DX003 (ip), vehicle: saline) 106 % of control. Further, the T/C (dose: 13.0 mg/kg/injection, schedule: Q01DX009 (ip), vehicle: saline) was 123 % of control; the T/C (dose: 64.0 mg/kg/injection, schedule: Q04DX003 (ip), vehicle: saline) was 115 % of control; the T/C (dose: 128.0 mg/kg/injection, schedule: Q04DX003 (ip), vehicle: saline) is 101 % of control.
For the compound `CCOC(=O)C(=[N+]=[N-])C(F)(F)F`, the T/C reads like this: under setting [2], 102 % of control; under setting [3], 102 % of control; under setting [5], 95 % of control.
As for `CCCCC(CC)(CO)CO`, the T/C by setting is: under setting [11], 110 % of control; under setting [12], 100 % of control; (dose: 400.0 mg/kg/injection, schedule: Q04DX003 (ip), vehicle: saline with Tween-80) 111 % of control.
As for `CC(C)CNC(=O)Nc1ccccc1`, the T/C by setting is: (dose: 75.0 mg/kg/injection, schedule: Q01DX001 (ip), vehicle: saline) 97 % of control; (dose: 150.0 mg/kg/injection, schedule: Q01DX001 (ip), vehicle: saline) 95 % of control.
For `O=C(c1ccc(Cl)cc1)C(NCCO)c1ccc(Cl)cc1` (stereo not given), the T/C was 97 % of control (dose: 50.0 mg/kg/injection, schedule: Q01DX001 (ip), vehicle: saline); 101 % of control (dose: 100.0 mg/kg/injection, schedule: Q01DX001 (ip), vehicle: saline); 95 % of control (dose: 200.0 mg/kg/injection, schedule: Q01DX001 (ip), vehicle: saline); 95 % of control (dose: 400.0 mg/kg/injection, schedule: Q01DX001 (ip), vehicle: saline).
For `CN=C1N[N+]2=C(C)CSCC2(C)S1` (stereo not given), the T/C is 98 % of control under setting [4], 98 % of control under setting [6] and 89 % of control under setting [7].

These data come from PubChem BioAssay AID248 (DTP/NCI, 2004).
